# Data published in patent US6843979B2, “4-haloethenylphenyl tropane:serotonin transporter imaging agents” (Emory University, priority 1999, dated 2005).
# “And” between values parts separate entries of the source, which are not always exact repeats. Equal values may be shown once.
# Tests used:
# [1] = molecular target: T1, NET (norepinephrine transporter site) (Homo sapiens, UniProt P23975); assay: Transporter affinity of N-alkyl ZIENT ligands in transfected cell lines, [3H]nisoxetine; type: binding
# T1 construct: expressed in transfected cells
# T1 sequence (P23975 whole entry): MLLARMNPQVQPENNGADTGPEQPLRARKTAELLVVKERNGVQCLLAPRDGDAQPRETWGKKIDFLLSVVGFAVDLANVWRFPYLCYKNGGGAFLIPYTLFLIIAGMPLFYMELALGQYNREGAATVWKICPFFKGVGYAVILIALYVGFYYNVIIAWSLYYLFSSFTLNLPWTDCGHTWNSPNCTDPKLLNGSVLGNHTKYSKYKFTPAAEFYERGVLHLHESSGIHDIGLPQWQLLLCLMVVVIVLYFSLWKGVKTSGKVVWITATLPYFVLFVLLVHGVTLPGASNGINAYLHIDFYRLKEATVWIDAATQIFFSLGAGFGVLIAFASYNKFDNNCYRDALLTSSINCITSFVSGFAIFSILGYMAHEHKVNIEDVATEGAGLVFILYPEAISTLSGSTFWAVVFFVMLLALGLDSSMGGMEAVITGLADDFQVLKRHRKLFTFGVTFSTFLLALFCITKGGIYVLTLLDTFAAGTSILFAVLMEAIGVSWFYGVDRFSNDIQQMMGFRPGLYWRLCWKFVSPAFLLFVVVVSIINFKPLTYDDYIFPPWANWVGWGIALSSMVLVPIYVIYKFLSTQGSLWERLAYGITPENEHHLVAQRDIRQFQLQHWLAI
# Excerpt: (§1) In order to determine whether any structural modifications of ZIENT, FEINT, and FEBrNT would still yield high selectivity and specificity for SERT similar to the results seen with ZIENT, FEINT, FEBrNT and FEClNT, various substitutions on the tropane nitrogen and the 2-beta carboxyester position were made and tested in in vitro binding studies.
# (§2) These studies provide a variety of new compounds which can be used as imaging agents for visualizing the location and density of serotonin transporter by PET or SPECT imaging.
# [2] = molecular target: T2, 5-HTT (serotonin transporter site) (Homo sapiens, UniProt P31645); assay: Transporter affinity of N-alkyl ZIENT ligands in transfected cell lines, [3H]citalopram; type: binding
# T2 construct: expressed in transfected cells
# T2 sequence (P31645 whole entry): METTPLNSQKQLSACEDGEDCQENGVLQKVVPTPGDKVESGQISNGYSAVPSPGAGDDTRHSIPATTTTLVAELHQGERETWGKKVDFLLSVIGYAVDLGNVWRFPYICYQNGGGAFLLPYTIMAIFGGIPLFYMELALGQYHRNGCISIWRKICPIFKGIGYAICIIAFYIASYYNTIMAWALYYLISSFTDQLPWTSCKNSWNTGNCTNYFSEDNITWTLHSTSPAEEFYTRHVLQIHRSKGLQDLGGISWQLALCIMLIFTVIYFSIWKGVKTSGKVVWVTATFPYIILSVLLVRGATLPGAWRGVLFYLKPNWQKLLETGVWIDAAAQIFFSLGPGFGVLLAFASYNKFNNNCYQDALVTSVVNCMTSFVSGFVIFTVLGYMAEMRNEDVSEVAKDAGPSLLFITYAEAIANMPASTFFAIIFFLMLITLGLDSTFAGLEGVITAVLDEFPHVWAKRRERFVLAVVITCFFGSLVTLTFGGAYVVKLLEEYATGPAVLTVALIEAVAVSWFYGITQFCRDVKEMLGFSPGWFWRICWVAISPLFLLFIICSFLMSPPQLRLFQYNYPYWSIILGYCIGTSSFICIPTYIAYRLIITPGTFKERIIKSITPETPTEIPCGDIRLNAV
# Excerpt: as §1, §2
# [3] = molecular target: T3, DAT (dopamine transporter site) (Homo sapiens, UniProt Q01959); assay: Transporter affinity of N-alkyl ZIENT ligands in transfected cell lines, [125I]TRI-55; type: binding
# T3 construct: expressed in transfected cells
# T3 sequence (Q01959 whole entry): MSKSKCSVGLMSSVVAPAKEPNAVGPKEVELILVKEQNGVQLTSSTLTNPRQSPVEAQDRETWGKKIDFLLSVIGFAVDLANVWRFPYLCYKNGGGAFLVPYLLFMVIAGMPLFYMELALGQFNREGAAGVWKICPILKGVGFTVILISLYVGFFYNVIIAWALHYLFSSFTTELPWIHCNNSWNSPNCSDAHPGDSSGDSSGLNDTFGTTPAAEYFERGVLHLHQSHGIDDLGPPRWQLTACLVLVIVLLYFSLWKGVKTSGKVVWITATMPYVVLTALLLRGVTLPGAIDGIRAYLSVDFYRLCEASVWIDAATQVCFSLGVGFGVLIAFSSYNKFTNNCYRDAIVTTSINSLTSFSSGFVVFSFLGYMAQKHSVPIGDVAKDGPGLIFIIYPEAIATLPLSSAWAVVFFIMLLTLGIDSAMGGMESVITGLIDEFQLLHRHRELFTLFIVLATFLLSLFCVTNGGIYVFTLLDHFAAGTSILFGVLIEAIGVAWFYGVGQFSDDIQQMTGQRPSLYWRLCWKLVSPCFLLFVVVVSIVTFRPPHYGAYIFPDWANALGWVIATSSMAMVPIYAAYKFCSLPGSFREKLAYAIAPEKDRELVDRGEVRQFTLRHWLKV
# Excerpt: as §1, §2
# human SERT = molecular target: T4, human SERT (Homo sapiens, UniProt P31645); assay: Binding site competition, cells stably transfected with human SERT, [3H]citalopram
# T4 construct: expressed in transfected cells
# T4 sequence (P31645 whole entry): as the sequence (P31645 whole entry) above
# SERT [4] = settings: cited from earlier work; for IC50: vs [3H]paroxetine
# [5] = molecular target: dopamine transporter (DAT) (Rattus norvegicus, UniProt P23977); settings: vs [3H]WIN 35428; cited from earlier work
# Chain of dopamine transporter (DAT) (P23977 whole entry): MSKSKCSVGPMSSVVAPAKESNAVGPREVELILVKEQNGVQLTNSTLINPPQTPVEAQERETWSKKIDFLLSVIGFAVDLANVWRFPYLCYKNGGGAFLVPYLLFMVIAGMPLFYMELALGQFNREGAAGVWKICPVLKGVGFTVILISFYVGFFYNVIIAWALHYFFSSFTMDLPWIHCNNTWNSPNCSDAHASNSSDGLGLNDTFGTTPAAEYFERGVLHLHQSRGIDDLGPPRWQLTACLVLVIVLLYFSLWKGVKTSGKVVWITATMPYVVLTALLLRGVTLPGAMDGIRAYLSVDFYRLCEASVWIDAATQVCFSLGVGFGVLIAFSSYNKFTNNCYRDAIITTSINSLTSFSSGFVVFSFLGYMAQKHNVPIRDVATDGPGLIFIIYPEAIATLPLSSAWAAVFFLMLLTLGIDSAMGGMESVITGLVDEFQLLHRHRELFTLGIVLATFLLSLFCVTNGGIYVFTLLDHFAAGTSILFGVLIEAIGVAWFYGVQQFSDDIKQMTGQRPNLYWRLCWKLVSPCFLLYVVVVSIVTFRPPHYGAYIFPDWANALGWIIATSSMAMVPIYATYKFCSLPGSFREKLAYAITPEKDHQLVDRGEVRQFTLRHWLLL
# human NET = molecular target: T5, human NET (Homo sapiens, UniProt P23975); assay: Binding site competition, cells stably transfected with human NET, [3H]nisoxetine; settings: NET Ki, transfected cell lines
# T5 construct: expressed in transfected cells
# T5 sequence (P23975 whole entry): as the sequence (P23975 whole entry) above
# human DAT = molecular target: T6, human DAT (Homo sapiens, UniProt Q01959); assay: Binding site competition, cells stably transfected with human DAT, [3H]WIN 35,428; settings: [3H]WIN 35428, transfected cell lines
# T6 construct: expressed in transfected cells
# T6 sequence (Q01959 whole entry): as the sequence (Q01959 whole entry) above
# SERT sites = assay: In vitro autoradiography, coronal brain slices; type: binding, pig tailed macaque
# Procedure: [^18F]FEINT and [^18F]FEBrNT were incubated with pig tailed macaque coronal brain slices and the slices exposed to film for 30 min. […] Incubation of the brain slices with [^18F]FEINT (FIG. 1) and [^18F]FEBrNT and 10 μM citalopram yielded maximal inhibition (90%) of binding.
# The radiosynthesis for [^18F] 10a, [^18F]12a, and [^18F]12b employed the tosylates 9a and 13a,b as the substrates respectively. The tosylate 9a was treated with NCA K[^18F]/K222 for 10 min in 1 mL of CH3CN at 85° C. followed by TFA/CH2Cl2 at 27° C. […] [^18F]FEBrNT and [^18F]FEClNT were synthesized from the tosylates 13a and 13b in a similar manner. [^18F]FEINT and [18F]FEBrNT were incubated with pig tailed macaque coronal brain slices.
# SERT [6] = molecular target: T7, SERT (Rattus norvegicus, UniProt P31652); assay: Ex vivo autoradiographic study in rats; parameters: species or system Sprague Dawley rat
# T7 construct: from tissue; host or cells: brain and other tissues of living male Sprague Dawley rats
# T7 sequence (P31652 whole entry): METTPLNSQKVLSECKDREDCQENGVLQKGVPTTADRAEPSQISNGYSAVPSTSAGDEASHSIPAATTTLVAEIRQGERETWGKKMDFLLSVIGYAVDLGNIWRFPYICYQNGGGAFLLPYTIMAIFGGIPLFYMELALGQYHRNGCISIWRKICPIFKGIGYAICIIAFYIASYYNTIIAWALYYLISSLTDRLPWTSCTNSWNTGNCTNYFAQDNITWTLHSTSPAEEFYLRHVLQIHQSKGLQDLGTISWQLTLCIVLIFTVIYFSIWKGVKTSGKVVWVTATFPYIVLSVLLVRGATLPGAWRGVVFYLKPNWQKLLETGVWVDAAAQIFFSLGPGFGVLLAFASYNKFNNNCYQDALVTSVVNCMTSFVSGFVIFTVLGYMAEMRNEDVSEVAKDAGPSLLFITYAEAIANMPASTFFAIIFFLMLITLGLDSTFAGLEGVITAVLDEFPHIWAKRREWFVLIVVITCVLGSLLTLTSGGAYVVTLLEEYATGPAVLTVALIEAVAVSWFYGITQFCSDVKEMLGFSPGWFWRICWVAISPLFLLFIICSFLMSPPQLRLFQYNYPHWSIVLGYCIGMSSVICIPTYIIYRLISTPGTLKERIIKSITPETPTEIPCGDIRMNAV
# Procedure: An initial ex vivo autoradiographic study was performed with either [^18F]FEINT or [^18F]FEBrNT in rats to measure brain penetration and regional distribution. A male Sprague Dawley rat was injected with one mCi of no-carrier added either […].
# SERT [7] = molecular target: T8, SERT (Macaca mulatta, UniProt Q9MYX0); assay: PET imaging and fluvoxamine displacement in rhesus monkey; type: in vivo; settings: anesthetized rhesus monkey; thalamus, hypothalamus, pons / midbrain, brain stem
# T8 construct: from tissue; host or cells: brain of a living rhesus monkey
# T8 sequence (Q9MYX0 whole entry): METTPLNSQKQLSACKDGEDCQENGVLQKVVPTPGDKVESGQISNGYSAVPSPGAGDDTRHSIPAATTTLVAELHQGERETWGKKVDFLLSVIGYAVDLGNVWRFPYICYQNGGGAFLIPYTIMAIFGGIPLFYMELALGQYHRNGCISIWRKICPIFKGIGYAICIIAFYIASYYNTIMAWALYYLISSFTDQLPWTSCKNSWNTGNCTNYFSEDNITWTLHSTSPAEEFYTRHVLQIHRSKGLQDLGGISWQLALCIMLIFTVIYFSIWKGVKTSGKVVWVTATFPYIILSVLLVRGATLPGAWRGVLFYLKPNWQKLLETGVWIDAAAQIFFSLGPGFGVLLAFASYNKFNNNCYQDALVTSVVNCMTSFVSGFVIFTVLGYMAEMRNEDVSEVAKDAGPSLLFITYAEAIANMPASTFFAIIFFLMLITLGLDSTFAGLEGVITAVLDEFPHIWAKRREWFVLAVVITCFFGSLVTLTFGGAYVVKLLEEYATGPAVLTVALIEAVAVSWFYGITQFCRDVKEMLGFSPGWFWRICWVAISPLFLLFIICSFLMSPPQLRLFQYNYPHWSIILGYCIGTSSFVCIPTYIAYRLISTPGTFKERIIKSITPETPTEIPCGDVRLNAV
# Procedure: FIG. 3 is a graph showing time activity curves of [^18F]FEBrNT in a rhesus monkey in the thalamus (∘), hypothalamus (Δ), pons (⋄) and cerebellum (x) at 0-120 min i.v. post injection.
# SERT [8] = molecular target: T7, SERT; assay: Tissue uptake of [18F]FEINT in rats; type: in vivo, Sprague Dawley rat; settings: for Clearance from the hypothalamus: rat
# Procedure: The in vivo regional brain tissue distribution of [^18F]FEBrNT (Table 2) and [^18F]FEINT Tables 3 and 4) were compared with a preliminary study in rats. […] The hypothalamus to cerebellum ratios for [^18F]FEBrNT were 5.7 at 60 min post injection in comparison to 4.8 for [^18F]FEINT. […] The regional distribution of [^18F]FEBrNT and [^18F]FEINT were next studied in the brain of rhesus monkeys.
# [9] = [3H]citalopram, transfected cell lines
# [10] = Table 3, rat, 60 min after i.v., Fluvoxamine
# [11] = Table 3, rat, 60 min after i.v., No block
# [12] = Table 4, rat, 30 min after i.v.
# [13] = Table 4, rat, 60 min after i.v.
# [14] = Table 4, rat, 120 min after i.v.
smiles,measurement,setting,value
COC(=O)C1C(c2ccc(C=CI)cc2)CC2CCC1N2CCF (centres unmarked) [N-fluoroethyl ZIENT],Ki,[1],21 nM
same,Ki,[2],1.28 nM
same,Ki,[3],27 nM
COC(=O)C1C(c2ccc(C=CI)cc2)CC2CCC1N2C (centres unmarked) [N-methyl ZIENT],Ki,[1],69 nM
same,Ki,[2],0.48 nM
same,Ki,[3],33 nM
"COC(=O)C1C2CCC(CC1c1ccc(I)cc1)N2 (stereo not drawn) [Nor-CIT, 2β-carbomethoxy-3β-(4-iodophenyl)nortropane, reference compound]",Ki,human SERT; [9],0.12 nM
"CC=Cc1ccc(C2CC3CCC(N3)C2C(=O)OC)cc1 (stereo not drawn) [Nor-β-CCPPT, 2β-carbomethoxy-3β-(4′cis-propenylphenyl)notropane]",Selectivity for the SERT over the DAT,SERT [4],28 times
same,IC50,SERT [4],1.15 nM
same,IC50,[5],32 nM
"C=C(C)c1ccc(C2CC3CCC(N3)C2C(=O)OC)cc1 (stereo not drawn) [Nor-β-CIPPT, 2β-carbomethoxy-3β-(4′-isopropenylphenyl)nortropane]",Selectivity for the SERT over the DAT,SERT [4],38 times
same,IC50,SERT [4],0.6 nM
COC(=O)C1C2CCC(CC1c1ccc(C=CI)cc1)N2 (centres unmarked) [ZIENT],Ki,human SERT; [9],0.031 nM and 0.03 to 0.1 nM and 0.05 nM
same,SERT Ki,human SERT; [9],subnanomolar
same,DAT/SERT selectivity,"human SERT; ratio of Ki, DAT",100 and 116
same,NET/SERT selectivity,"human SERT; ratio of Ki, NET",484
same,Ki,[1],64 nM
same,Ki,[2],0.25 nM
same,Ki,human NET,24 nM
same,Ki,human DAT,3.47 nM
same,Ki,[3],16 nM
COC(=O)C1C2CCC(CC1c1ccc(CC[18F])c(I)c1)N2 (centres unmarked) [[^18F]FEINT],Localization of tracer binding in brain slices,SERT sites; slices exposed to film 30 min,"localized to the thalamus, hypothalamus, caudate, amygloid complex, putamen and temporal cortex"
same,Inhibition of tracer binding to brain slices,SERT sites; with 10 μM citalopram,90%
same,"Localization of tracer binding, ex vivo autoradiography",SERT [6]; 1 mCi tracer,"localized to the thalamus, hypothalamus, caudate, putamen and amygloid complex"
same,Effect of fluvoxamine block on tracer binding,SERT [6]; fluvoxamine 5 mg/kg 20 min prior to tracer,maximal inhibition of binding
same,Regional brain uptake by PET,SERT [7],no visible uptake
same,Hypothal/(CB) ratio,SERT [8]; [10],3.8
same,Striatum/(CB) ratio,SERT [8]; [10],2.0
same,"Tissue uptake, Blood",SERT [8]; [10],0.07 (0.06-0.08) % dose/g
same,"Tissue uptake, Cerebellum",SERT [8]; [10],0.1 (0.09-0.12) % dose/g
same,"Tissue uptake, Cortex",SERT [8]; [10],0.15 (0.15-0.73) % dose/g
same,"Tissue uptake, Hypothalamus",SERT [8]; [10],0.38 (0.28-0.45) % dose/g
same,"Tissue uptake, Olf. T.",SERT [8]; [10],0.04 (0.19-0.55) % dose/g
same,"Tissue uptake, Prefrontal Cortex",SERT [8]; [10],0.18 (0.06-0.41) % dose/g
same,"Tissue uptake, Striatum",SERT [8]; [10],0.2 (0.16-1.40) % dose/g
same,Hypothal/(CB) ratio,SERT [8]; [11],4.8 and 4.6
same,Striatum/(CB) ratio,SERT [8]; [11],2.3
same,"Tissue uptake, Blood",SERT [8]; [11],0.09 (0.09-0.99) % dose/g
same,"Tissue uptake, Cerebellum",SERT [8]; [11],0.11 (0.11-0.12) % dose/g
same,"Tissue uptake, Cortex",SERT [8]; [11],0.18 (0.15-0.19) % dose/g
same,"Tissue uptake, Hypothalamus",SERT [8]; [11],0.5 (0.32-0.77) % dose/g
same,"Tissue uptake, Olf. T.",SERT [8]; [11],1.46 (1.24-1.65) % dose/g
same,"Tissue uptake, Prefrontal Cortex",SERT [8]; [11],0.25 (0.21-0.29) % dose/g
same,"Tissue uptake, Striatum",SERT [8]; [11],0.25 (0.21-0.29) % dose/g
same,Hypothal/(CB) ratio,"SERT [8]; Table 4, rat, 5 min after i.v.",1.67
same,Striatum/(CB) ratio,"SERT [8]; Table 4, rat, 5 min after i.v.",1.45
same,"Tissue uptake, Blood","SERT [8]; Table 4, rat, 5 min after i.v.",0.19 (0.15-0.23)
same,"Tissue uptake, Bone","SERT [8]; Table 4, rat, 5 min after i.v.",0.27 (0.23-0.31)
same,"Tissue uptake, Brain","SERT [8]; Table 4, rat, 5 min after i.v.",0.65 (0.56-0.75)
same,"Tissue uptake, Cerebellum","SERT [8]; Table 4, rat, 5 min after i.v.",0.58 (0.51-0.65)
same,"Tissue uptake, Cortex","SERT [8]; Table 4, rat, 5 min after i.v.",0.76 (0.64-0.96)
same,"Tissue uptake, Hypothalamus","SERT [8]; Table 4, rat, 5 min after i.v.",0.97 (0.58-1.59)
same,"Tissue uptake, Pre-frontal Cortex","SERT [8]; Table 4, rat, 5 min after i.v.",0.75 (0.54-0.87)
same,"Tissue uptake, Striatum","SERT [8]; Table 4, rat, 5 min after i.v.",0.84 (0.59-1.20)
same,Hypothal/(CB) ratio,SERT [8]; [12],2.87
same,Striatum/(CB) ratio,SERT [8]; [12],1.70
same,"Tissue uptake, Blood",SERT [8]; [12],0.14 (0.13-0.15)
same,"Tissue uptake, Bone",SERT [8]; [12],0.70 (0.36-0.92)
same,"Tissue uptake, Brain",SERT [8]; [12],0.35 (0.32-0.40)
same,"Tissue uptake, Cerebellum",SERT [8]; [12],0.23 (0.22-0.23)
same,"Tissue uptake, Cortex",SERT [8]; [12],0.36 (0.34-0.40)
same,"Tissue uptake, Hypothalamus",SERT [8]; [12],0.66 (0.51-0.89)
same,"Tissue uptake, Pre-frontal Cortex",SERT [8]; [12],0.37 (0.33-0.42)
same,"Tissue uptake, Striatum",SERT [8]; [12],0.39 (0.29-0.55)
same,Hypothal/(CB) ratio,SERT [8]; [13],2.67
same,Striatum/(CB) ratio,SERT [8]; [13],2.44
same,"Tissue uptake, Blood",SERT [8]; [13],0.10 (0.08-0.11)
same,"Tissue uptake, Bone",SERT [8]; [13],0.95 (0.53-1.17)
same,"Tissue uptake, Brain",SERT [8]; [13],0.14 (0.12-0.18)
same,"Tissue uptake, Cerebellum",SERT [8]; [13],0.09 (0.07-0.11)
same,"Tissue uptake, Cortex",SERT [8]; [13],0.13 (0.10-0.17)
same,"Tissue uptake, Hypothalamus",SERT [8]; [13],0.24 (0.18-0.30)
same,"Tissue uptake, Pre-frontal Cortex",SERT [8]; [13],0.14 (0.11-0.19)
same,"Tissue uptake, Striatum",SERT [8]; [13],0.22 (0.17-0.31)
same,Hypothal/(CB) ratio,SERT [8]; [14],2.8 and 2.83
same,Striatum/(CB) ratio,SERT [8]; [14],1.7 and 1.67
same,"Tissue uptake, Blood",SERT [8]; [14],0.63 (0.58-0.68)
same,"Tissue uptake, Bone",SERT [8]; [14],1.26 (0.94-1.67)
same,"Tissue uptake, Brain",SERT [8]; [14],0.89 (0.08-0.11)
same,"Tissue uptake, Cerebellum",SERT [8]; [14],0.06 (0.05-0.08)
same,"Tissue uptake, Cortex",SERT [8]; [14],0.09 (0.08-0.11)
same,"Tissue uptake, Hypothalamus",SERT [8]; [14],0.17 (0.26-0.17)
same,"Tissue uptake, Pre-frontal Cortex",SERT [8]; [14],0.10 (0.09-0.11)
same,"Tissue uptake, Striatum",SERT [8]; [14],0.10 (0.09-0.13)
same,Clearance from the hypothalamus,SERT [8]; at 60 min compared to 5 min post injection,75%
same,Clearance from the hypothalamus,SERT [8]; at 120 min compared to 5 min post injection,85%
